Laboratory results reported in article PMC5064435, “Inhibition of endoplasmic reticulum glucosidases is required for in vitro and in vivo dengue antiviral activity by the iminosugar UV-4” (Antiviral Research, 2016).
Where a name gives a salt, the structure may show the parent alone.

What was measured:
[1] = biological target: T1, α-glucosidase II (human MDMΦs) (Homo sapiens, UniProt Q14697); assay: free oligosaccharide (Glc1Man4GlcNAc1) accumulation in human MDMΦs; format: cell-based; conditions: […] h treatment of uninfected cells
T1 construct: gene GANAB; endogenous enzyme in primary human monocyte-derived macrophages; with Glucosidase 2 subunit beta
T1 sequence (Q14697 29-944): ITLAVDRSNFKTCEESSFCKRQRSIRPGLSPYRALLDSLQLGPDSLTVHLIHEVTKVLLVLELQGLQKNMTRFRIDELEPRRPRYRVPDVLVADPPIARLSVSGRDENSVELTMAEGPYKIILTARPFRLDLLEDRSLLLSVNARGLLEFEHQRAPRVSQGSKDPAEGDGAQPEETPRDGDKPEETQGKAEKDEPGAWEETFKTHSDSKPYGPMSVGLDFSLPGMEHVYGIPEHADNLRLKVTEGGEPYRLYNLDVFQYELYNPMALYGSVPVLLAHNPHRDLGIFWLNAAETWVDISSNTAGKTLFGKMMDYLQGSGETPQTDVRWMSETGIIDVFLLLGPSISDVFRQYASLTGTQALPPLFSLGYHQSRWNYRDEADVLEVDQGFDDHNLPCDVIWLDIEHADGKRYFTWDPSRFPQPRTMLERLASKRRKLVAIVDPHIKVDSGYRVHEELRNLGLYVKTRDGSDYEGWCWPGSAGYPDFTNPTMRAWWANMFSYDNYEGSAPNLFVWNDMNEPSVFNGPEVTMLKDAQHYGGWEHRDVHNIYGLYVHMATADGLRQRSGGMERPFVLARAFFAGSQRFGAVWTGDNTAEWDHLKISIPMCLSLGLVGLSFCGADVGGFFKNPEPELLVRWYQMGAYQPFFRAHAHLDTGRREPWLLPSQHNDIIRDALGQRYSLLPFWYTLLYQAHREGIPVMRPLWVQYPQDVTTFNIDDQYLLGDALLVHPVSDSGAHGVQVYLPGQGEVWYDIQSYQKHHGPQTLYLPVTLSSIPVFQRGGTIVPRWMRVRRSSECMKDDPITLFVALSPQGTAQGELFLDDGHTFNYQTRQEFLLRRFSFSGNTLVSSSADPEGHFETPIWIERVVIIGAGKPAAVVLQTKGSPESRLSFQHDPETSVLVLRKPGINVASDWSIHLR
T1 sequence (P14314 15-528 partner): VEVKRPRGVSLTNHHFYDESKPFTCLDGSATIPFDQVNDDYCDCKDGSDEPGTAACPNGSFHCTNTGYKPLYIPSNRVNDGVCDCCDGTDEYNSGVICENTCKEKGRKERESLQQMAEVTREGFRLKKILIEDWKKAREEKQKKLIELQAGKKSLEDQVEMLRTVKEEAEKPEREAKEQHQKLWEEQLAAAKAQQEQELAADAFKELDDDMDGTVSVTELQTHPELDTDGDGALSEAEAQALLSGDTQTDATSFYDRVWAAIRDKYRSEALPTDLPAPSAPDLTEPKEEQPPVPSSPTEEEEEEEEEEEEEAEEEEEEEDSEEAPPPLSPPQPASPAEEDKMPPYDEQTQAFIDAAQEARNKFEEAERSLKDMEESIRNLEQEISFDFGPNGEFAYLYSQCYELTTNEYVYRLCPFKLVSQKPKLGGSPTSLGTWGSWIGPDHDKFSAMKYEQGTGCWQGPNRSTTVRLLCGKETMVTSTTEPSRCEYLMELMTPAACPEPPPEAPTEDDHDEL

Rat intestinal maltase = biological target: T2, Rat intestinal maltase; assay: enzyme inhibition assay; format: biochemical; conditions: read-out: IC50 ^a / UV-4B
T2 construct: gene Mgam; native rat intestinal enzyme activity; maltase may be maltase-glucoamylase and/or sucrase-isomaltase
Excerpt: enzyme inhibition assay on Rat intestinal maltase

IC50 (Rat intestinal maltase): 280 nM
Structure (SMILES): COCCCCCCCCCN1C[C@H](O)[C@@H](O)[C@H](O)[C@H]1CO [UV-4B, N-(9′-methoxynonyl)-1-deoxynojirimycin hydrochloride]
free oligosaccharide (Glc1Man4GlcNAc1) accumulation in human MDMΦs [1]: UV-4B led to accumulation of FOS representative of inhibition of both α-glucosidases
